Legend:
[1] = DRUGMATRIX: Sigma2 radioligand binding (ligand: [3H] Ifenprodil); format: cell membranes, Rattus norvegicus, Wistar, Brain, Membrane; settings: Not Active = under 50% inhibition at 10 µM
[2] = target: T1, Muscarinic acetylcholine receptor M4 (Homo sapiens, UniProt P08173); format: cell membranes, CHO-K1, Membrane; settings: cho-k1; further: in other assays of this panel Not Active means under 50% inhibition at 10 µM
T1 sequence (P08173 whole entry): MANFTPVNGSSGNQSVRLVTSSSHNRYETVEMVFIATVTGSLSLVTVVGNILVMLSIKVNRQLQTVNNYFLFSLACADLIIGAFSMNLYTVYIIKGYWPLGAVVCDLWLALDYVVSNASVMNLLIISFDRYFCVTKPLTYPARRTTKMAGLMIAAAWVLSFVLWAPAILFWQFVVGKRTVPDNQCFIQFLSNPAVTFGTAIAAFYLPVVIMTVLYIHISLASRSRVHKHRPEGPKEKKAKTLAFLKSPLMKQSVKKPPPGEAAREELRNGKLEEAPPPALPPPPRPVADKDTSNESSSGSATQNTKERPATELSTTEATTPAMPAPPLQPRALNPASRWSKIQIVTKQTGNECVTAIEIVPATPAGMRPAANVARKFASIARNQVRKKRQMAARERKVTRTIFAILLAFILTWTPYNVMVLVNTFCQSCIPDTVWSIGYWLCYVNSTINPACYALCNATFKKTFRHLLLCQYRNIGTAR

[3] = DRUGMATRIX: GABAA, Flunitrazepam, Central radioligand binding (ligand: [3H] Flunitrazepam); format: cell membranes, Rattus norvegicus, Wistar, Brain, Membrane; settings: Not Active = under 50% inhibition at 10 µM
[4] = target: T2, Nitric oxide synthase, inducible (Mus musculus, UniProt P29477); set-up: species or system Escherichia coli;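 further: inhibition of iNOS enzyme activity measured with L-arginine as substrate; in other assays of this panel Not Active means under 50% inhibition at 10 µM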
T2 sequence (P29477 whole entry): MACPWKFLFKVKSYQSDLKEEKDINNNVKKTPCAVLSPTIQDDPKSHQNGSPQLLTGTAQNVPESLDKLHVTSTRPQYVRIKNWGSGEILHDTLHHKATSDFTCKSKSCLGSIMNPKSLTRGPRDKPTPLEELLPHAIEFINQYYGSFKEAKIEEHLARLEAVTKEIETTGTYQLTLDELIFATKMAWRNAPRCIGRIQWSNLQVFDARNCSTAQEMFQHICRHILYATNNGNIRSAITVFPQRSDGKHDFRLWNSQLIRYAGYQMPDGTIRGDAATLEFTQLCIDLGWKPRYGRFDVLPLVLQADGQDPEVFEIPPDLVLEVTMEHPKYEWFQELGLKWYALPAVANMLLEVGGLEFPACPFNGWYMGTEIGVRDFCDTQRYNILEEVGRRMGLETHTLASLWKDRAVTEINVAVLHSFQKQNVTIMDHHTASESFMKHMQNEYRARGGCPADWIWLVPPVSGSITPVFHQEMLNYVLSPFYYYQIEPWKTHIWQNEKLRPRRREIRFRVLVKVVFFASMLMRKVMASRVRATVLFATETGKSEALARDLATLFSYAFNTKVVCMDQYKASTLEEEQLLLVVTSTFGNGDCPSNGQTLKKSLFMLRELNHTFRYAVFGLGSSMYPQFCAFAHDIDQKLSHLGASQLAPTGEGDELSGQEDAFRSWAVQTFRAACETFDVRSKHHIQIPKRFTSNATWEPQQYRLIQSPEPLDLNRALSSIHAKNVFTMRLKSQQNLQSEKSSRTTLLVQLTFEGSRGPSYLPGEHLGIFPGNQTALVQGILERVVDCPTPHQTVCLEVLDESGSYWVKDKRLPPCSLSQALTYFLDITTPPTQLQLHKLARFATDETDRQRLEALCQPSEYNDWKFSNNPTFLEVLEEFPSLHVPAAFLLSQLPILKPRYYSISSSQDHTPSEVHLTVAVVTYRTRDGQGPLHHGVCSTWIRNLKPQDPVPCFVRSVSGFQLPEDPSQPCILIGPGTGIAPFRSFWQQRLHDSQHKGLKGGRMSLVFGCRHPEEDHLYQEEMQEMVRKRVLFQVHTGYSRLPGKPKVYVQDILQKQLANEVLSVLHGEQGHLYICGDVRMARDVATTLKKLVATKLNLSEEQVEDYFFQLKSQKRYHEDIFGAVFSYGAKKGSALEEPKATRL

[5] = target: T3, Type-2 angiotensin II receptor (Homo sapiens, UniProt P50052); format: cell-based; settings: cho-k1; further: in other assays of this panel Not Active means under 50% inhibition at 10 µM
T3 sequence (P50052 whole entry): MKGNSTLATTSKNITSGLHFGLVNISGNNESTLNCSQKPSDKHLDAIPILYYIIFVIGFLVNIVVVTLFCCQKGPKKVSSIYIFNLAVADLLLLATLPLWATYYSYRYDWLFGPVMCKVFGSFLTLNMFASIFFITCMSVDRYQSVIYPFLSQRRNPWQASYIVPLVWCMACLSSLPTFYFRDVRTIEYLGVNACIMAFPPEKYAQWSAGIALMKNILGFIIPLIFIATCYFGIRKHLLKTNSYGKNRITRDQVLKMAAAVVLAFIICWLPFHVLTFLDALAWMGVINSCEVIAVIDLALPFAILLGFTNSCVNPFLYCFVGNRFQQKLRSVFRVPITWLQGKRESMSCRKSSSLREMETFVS

[6] = target: Vasopressin V1a receptor (Homo sapiens, UniProt P37288); format: cell membranes, Membrane; settings: hek293; further: in other assays of this panel Not Active means under 50% inhibition at 10 µM
[7] = target: T4, Calcitonin receptor (Homo sapiens, UniProt P30988); format: cell membranes, Membrane; settings: t47d; further: in other assays of this panel Not Active means under 50% inhibition at 10 µM
T4 sequence (P30988 whole entry): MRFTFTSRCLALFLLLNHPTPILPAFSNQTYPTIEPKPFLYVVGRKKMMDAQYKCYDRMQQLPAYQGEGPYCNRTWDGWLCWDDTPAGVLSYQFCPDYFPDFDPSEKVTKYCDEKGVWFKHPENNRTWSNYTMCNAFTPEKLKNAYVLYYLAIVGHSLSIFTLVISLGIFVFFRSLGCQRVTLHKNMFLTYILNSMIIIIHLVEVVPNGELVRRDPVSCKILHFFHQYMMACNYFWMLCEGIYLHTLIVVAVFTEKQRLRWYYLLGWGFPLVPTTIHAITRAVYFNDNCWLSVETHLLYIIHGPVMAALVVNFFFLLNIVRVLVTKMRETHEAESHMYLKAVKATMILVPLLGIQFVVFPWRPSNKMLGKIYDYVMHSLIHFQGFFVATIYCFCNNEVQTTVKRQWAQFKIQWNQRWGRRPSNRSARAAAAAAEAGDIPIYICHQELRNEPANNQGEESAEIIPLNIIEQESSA

Vasopressin V1a receptor, sequence (P37288 whole entry): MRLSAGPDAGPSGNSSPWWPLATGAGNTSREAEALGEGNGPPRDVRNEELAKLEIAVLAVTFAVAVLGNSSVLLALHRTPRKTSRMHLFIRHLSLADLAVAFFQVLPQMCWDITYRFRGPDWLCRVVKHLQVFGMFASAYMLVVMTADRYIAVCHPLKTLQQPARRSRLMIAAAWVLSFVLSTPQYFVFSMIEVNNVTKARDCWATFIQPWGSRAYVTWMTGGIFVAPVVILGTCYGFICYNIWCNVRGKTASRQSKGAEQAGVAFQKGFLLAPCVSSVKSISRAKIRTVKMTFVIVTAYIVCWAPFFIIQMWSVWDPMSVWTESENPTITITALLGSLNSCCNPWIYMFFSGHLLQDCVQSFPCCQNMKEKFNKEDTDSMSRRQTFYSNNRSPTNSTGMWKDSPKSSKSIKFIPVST

C[C@@H](CO)NC(=O)[C@@H]1C=C2c3cccc4[nH]cc(c34)C[C@H]2N(C)C1 [ERGONOVINE]
Not Active: IC50 [1] | Ki [1] | IC50 [2] | IC50 [3] | Ki [3] | IC50 [4] | IC50 [5] | IC50 [6] | IC50 [7]

CC(=O)O[C@H]1C(=O)[C@@]2(C)[C@H]([C@H](OC(=O)c3ccccc3)[C@]3(O)C[C@H](OC(=O)[C@H](O)[C@@H](NC(=O)c4ccccc4)c4ccccc4)C(C)=C1C3(C)C)[C@]1(OC(C)=O)CO[C@@H]1C[C@@H]2O [PACLITAXEL]
Not Active: IC50 [1] | Ki [1] | IC50 [2] | IC50 [3] | Ki [3] | IC50 [4] | IC50 [5] | IC50 [6] | IC50 [7]

Nc1ccn([C@@H]2O[C@H](CO)[C@@H](O)C2(F)F)c(=O)n1 [GEMCITABINE]
Not Active: IC50 [1] | Ki [1] | IC50 [2] | IC50 [3] | Ki [3] | IC50 [4] | IC50 [5] | IC50 [6] | IC50 [7]

COc1cc(N)c(Cl)cc1C(=O)NC1CCN(CCCOc2ccc(F)cc2)CC1OC (configuration not stated) [CISAPRIDE]
177 nM: IC50 ([1]; read-out: IC50)
Not Active: IC50 [2] | IC50 [3] | Ki [3] | IC50 [4] | IC50 [5] | IC50 [6] | IC50 [7]
109 nM: Ki ([1]; read-out: Ki)

CCC1(CCC(C)C)C(=O)NC(=O)NC1=O [AMOBARBITAL]
Not Active: IC50 [1] | Ki [1] | IC50 [2] | IC50 [3] | Ki [3] | IC50 [4] | IC50 [5] | IC50 [6] | IC50 [7]

O=C(O)c1cccnc1Nc1cccc(C(F)(F)F)c1 [NIFLUMIC ACID]
Not Active: IC50 [1] | Ki [1] | IC50 [2] | IC50 [3] | Ki [3] | IC50 [4] | IC50 [5] | IC50 [6] | IC50 [7]

Cn1c(=O)c2[nH]cnc2n(C)c1=O.Cn1c(=O)c2[nH]cnc2n(C)c1=O.NCCN [AMINOPHYLLINE]
Not Active: IC50 [1] | Ki [1] | IC50 [2] | IC50 [3] | Ki [3] | IC50 [4] | IC50 [5] | IC50 [6] | IC50 [7]

GENTAMICIN
Not Active: IC50 [1] | Ki [1] | IC50 [2] | Ki [2] | IC50 [3] | Ki [3] | IC50 [4] | Ki [4] | IC50 [5] | Ki [5] | IC50 [6] | Ki [6] | IC50 [7] | Ki [7]

CCCNCC(O)COc1ccccc1C(=O)CCc1ccccc1 (configuration not stated) [PROPAFENONE]
Not Active: IC50 [1] | Ki [1] | IC50 [2] | IC50 [3] | Ki [3] | IC50 [4] | IC50 [5] | IC50 [6] | IC50 [7]

C=CCc1ccc(O)c(OC)c1 [EUGENOL]
Not Active: IC50 [1] | Ki [1] | IC50 [2] | IC50 [3] | Ki [3] | IC50 [4] | IC50 [5] | IC50 [6] | IC50 [7]

COc1ccc2[nH]cc(CCNC(C)=O)c2c1 [MELATONIN]
Not Active: IC50 [1] | Ki [1] | IC50 [2] | IC50 [3] | Ki [3] | IC50 [4] | IC50 [5] | IC50 [6] | IC50 [7]

CC(C)NCC(O)COc1cccc2[nH]ccc12 (configuration not stated) [PINDOLOL]
Not Active: IC50 [1] | Ki [1] | IC50 [2] | IC50 [3] | Ki [3] | IC50 [4] | IC50 [5] | IC50 [6] | IC50 [7]

N=C(N)NC(=O)Cc1c(Cl)cccc1Cl [GUANFACINE]
Not Active: IC50 [1] | Ki [1] | IC50 [2] | IC50 [3] | Ki [3] | IC50 [4] | IC50 [5] | IC50 [6] | IC50 [7]

O=C(N/N=C/c1ccc([N+](=O)[O-])o1)c1cc([N+](=O)[O-])cc([N+](=O)[O-])c1O [NIFURSOL]
Not Active: IC50 [1] | Ki [1] | IC50 [2] | IC50 [3] | Ki [3] | IC50 [4] | IC50 [5] | IC50 [6] | IC50 [7]

COc1cc2nc(N3CCN(C(=O)c4ccco4)CC3)nc(N)c2cc1OC [PRAZOSIN]
Not Active: IC50 [1] | Ki [1] | IC50 [2] | IC50 [3] | Ki [3] | IC50 [4] | IC50 [5] | IC50 [6] | IC50 [7]

CC(C)NNC(=O)c1ccncc1 [IPRONIAZID]
Not Active: IC50 [1] | Ki [1] | IC50 [2] | IC50 [3] | Ki [3] | IC50 [4] | IC50 [5] | IC50 [6] | IC50 [7]

COc1cc([C@@H]2c3cc4c(cc3[C@@H](O[C@@H]3O[C@@H]5CO[C@@H](C)O[C@H]5[C@H](O)[C@H]3O)[C@H]3COC(=O)[C@H]23)OCO4)cc(OC)c1O [ETOPOSIDE]
Not Active: IC50 [1] | Ki [1] | IC50 [2] | IC50 [3] | Ki [3] | IC50 [4] | IC50 [5] | IC50 [6] | IC50 [7]

CC(C(=O)O)c1cccc(Oc2ccccc2)c1 (configuration not stated) [FENOPROFEN]
Not Active: IC50 [1] | Ki [1] | IC50 [2] | IC50 [3] | Ki [3] | IC50 [4] | IC50 [5] | IC50 [6] | IC50 [7]

From ChEMBL document CHEMBL1909046, “DrugMatrix in vitro pharmacology data”
